Source: ChEMBL document CHEMBL4507295 (2021)

Assays:
[1] = target: 5-hydroxytryptamine receptor 1E (Homo sapiens) (UniProt P28566); conditions: Compound concentration 10.0 uM
[2] = target: D(2) dopamine receptor (Homo sapiens) (UniProt P14416); conditions: Compound concentration 10.0 uM
[3] = target: T1, D(4) dopamine receptor (Homo sapiens) (UniProt P21917); assay: Dopamine D4.4 Eurofins-Panlabs radioligand binding assay; set-up: ligand concentration 1.2 nM; conditions: Compound concentration 10.0 uM
T1 sequence (whole entry): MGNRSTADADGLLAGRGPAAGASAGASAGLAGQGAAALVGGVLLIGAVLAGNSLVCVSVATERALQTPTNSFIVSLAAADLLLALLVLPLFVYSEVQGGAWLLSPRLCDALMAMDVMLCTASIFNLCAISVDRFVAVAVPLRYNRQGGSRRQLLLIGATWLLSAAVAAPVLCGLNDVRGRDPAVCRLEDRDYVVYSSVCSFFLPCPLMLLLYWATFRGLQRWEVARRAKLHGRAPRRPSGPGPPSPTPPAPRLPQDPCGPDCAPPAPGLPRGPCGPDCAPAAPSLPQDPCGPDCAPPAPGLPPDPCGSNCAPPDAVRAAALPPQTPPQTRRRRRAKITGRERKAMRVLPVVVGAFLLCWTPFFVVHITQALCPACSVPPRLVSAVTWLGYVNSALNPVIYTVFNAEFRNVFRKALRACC

[4] = target: Adenosine Transporter (Cavia porcellus) (UniProt H0V4R7+H0UUG1+H0V3Z5); assay: Inhibition of Transporter, Adenosine at compound concentration of 10.0 uM in the Eurofins-Panlabs radioligand binding assay (Eurofins_assay_202000); assay type: protein assay; set-up: ligand concentration 0.5 nM, non-specific ligand with concentration 5 uM Nitrobenzylthioinosine, incubation time 30 min, incubation temperature 25 C; conditions: Compound concentration 10.0 uM
[5] = target: Tyrosine 3-monooxygenase (Homo sapiens) (UniProt P07101); assay: Tyrosine Hydroxylase Eurofins-Panlabs enzyme assay; set-up: substrate with concentration; conditions: Rattus norvegicus; Compound concentration 10.0 uM
[6] = target: Prostaglandin D2 receptor (Homo sapiens) (UniProt Q13258); assay: Prostanoid DP Eurofins-Panlabs radioligand binding assay; conditions: Compound concentration 10.0 uM
[7] = target: Bombesin receptor (Rattus norvegicus) (UniProt P52500+P24053+Q8K418); assay: Bombesin, Non-Selective Eurofins-Panlabs radioligand binding assay; assay type: protein assay; conditions: Compound concentration 10.0 uM
[8] = target: Caspase-7 (Homo sapiens) (UniProt P55210); assay: Peptidase, CASP7 (Caspase 7) Eurofins-Panlabs enzyme assay; conditions: Compound concentration 10.0 uM
[9] = target: Beta-1 adrenergic receptor (Homo sapiens) (UniProt P08588); conditions: Compound concentration 10.0 uM
[10] = target: Glutamate NMDA receptor (Rattus norvegicus) (UniProt P35439+Q00959+Q00960+Q00961+Q62645+Q8VHN2+Q9R1M7); conditions: Compound concentration 10.0 uM
[11] = target: Mu-type opioid receptor (Homo sapiens) (UniProt P35372); conditions: Compound concentration 10.0 uM
[12] = target: Peroxisome proliferator-activated receptor gamma (Homo sapiens) (UniProt P37231); assay: PPARgamma Eurofins-Panlabs radioligand binding assay; set-up: ligand concentration 5 nM, non-specific ligand with concentration 0.5 µM L-797773, incubation time 18 h, incubation temperature 15 °C; conditions: Compound concentration 10.0 uM
[13] = target: Tyrosine-protein phosphatase non-receptor type 1 (Homo sapiens) (UniProt P18031); assay: Protein Tyrosine Phosphatase, PTPN1 (PTP1B) Eurofins-Panlabs enzyme assay; set-up: substrate with concentration; conditions: Compound concentration 10.0 uM
[14] = target: Epidermal growth factor receptor (Homo sapiens) (UniProt P00533); assay: Inhibition of Epidermal Growth Factor (EGF) at 10 µM in the Eurofins-Panlabs radioligand binding assay (Eurofins_assay_225510); conditions: Compound concentration 10.0 uM
[15] = target: D(1B) dopamine receptor (Homo sapiens) (UniProt P21918); assay: Dopamine D5 Eurofins-Panlabs radioligand binding assay; conditions: Compound concentration 10.0 uM
[16] = target: 5-hydroxytryptamine receptor 7 (Homo sapiens, UniProt P34969); assay: GPCRScan assay: inhibition of 5-HT7A; set-up: radioligand conc. used [nm] 5.0 – 6.0, parental cells Stable HEK
[17] = target: B1 bradykinin receptor (Homo sapiens) (UniProt P46663); assay: Bradykinin B1 Eurofins-Panlabs radioligand binding assay; conditions: Compound concentration 10.0 uM
[18] = target: Protein kinase C alpha type (Homo sapiens, UniProt P17252); assay: Inhibition of Protein Serine/Threonine Kinase, PRKCA (PKCα) at 10 µM in the Eurofins-Panlabs enzyme assay (Eurofins_assay_180010); set-up: substrate with concentration Histone, incubation time 10 min, incubation temperature 25 °C
[19] = species: Rattus norvegicus; assay: Serotonin (5-Hydroxytryptamine) 5-HT2, Non-Selective Eurofins-Panlabs radioligand binding assay; assay type: protein assay; conditions: Compound concentration 10.0 uM
[20] = target: cGMP-specific 3',5'-cyclic phosphodiesterase (Homo sapiens) (UniProt O76074); conditions: Compound concentration 100.0 uM
[21] = target: Neutrophil elastase (Homo sapiens) (UniProt P08246); assay: Peptidase, ELA2 (Neutrophil Elastase 2) Eurofins-Panlabs enzyme assay; conditions: Compound concentration 10.0 uM
[22] = species: Homo sapiens; assay: Cholecystokinin CCK2 (CCKB) Eurofins-Panlabs radioligand binding assay; set-up: ligand concentration 0.072 nM, non-specific ligand with concentration 1 µM Sincalide, incubation time 3 h, incubation temperature 25 °C; conditions: Compound concentration 10.0 uM
[23] = target: Glutamate NMDA receptor; GRIN1/GRIN2A (Homo sapiens) (UniProt Q05586+Q12879); assay: NMDA-NR1a/NR2a Eurofins-Panlabs radioligand binding assay; assay type: protein-complex assay; conditions: Compound concentration 10.0 uM
[24] = target: Peroxisome proliferator-activated receptor alpha (Homo sapiens) (UniProt Q07869); assay: PPARalpha Eurofins-Panlabs radioligand binding assay; conditions: Compound concentration 10.0 uM
[25] = target: Galanin receptor type 2 (Homo sapiens) (UniProt O43603); assay: Galanin GAL2 Eurofins-Panlabs radioligand binding assay; set-up: ligand concentration 0.02 nM; conditions: Compound concentration 10.0 uM
[26] = target: Glutamate receptor 2 (Homo sapiens) (UniProt P42262); conditions: Rattus norvegicus; Compound concentration 10.0 uM
[27] = target: Tyrosine-protein phosphatase non-receptor type 2 (Homo sapiens, UniProt P17706); assay: Panlabs assay; set-up: compound concentration 10 uM
[28] = species: Rattus norvegicus; assay: Protein Serine/Threonine Kinase, PKC, Non-Selective Eurofins-Panlabs enzyme assay; conditions: Compound concentration 10.0 uM
[29] = target: T2, Muscarinic acetylcholine receptor M4 (Homo sapiens) (UniProt P08173); conditions: Compound concentration 10.0 uM
T2 sequence (whole entry): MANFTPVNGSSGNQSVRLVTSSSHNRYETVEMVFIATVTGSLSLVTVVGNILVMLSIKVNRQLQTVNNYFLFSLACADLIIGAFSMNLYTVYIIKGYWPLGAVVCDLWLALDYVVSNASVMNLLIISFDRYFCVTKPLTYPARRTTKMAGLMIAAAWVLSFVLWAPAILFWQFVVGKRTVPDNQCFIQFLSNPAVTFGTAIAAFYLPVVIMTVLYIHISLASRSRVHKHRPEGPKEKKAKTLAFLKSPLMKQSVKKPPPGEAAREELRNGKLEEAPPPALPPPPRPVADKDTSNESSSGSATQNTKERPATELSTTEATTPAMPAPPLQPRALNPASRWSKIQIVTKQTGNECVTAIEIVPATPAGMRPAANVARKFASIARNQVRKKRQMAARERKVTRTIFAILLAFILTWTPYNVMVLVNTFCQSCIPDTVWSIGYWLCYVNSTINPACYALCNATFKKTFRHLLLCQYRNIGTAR

[30] = species: Homo sapiens; conditions: Compound concentration 10.0 uM
[31] = target: Somatostatin receptor type 1 (Homo sapiens) (UniProt P30872); assay: Somatostatin sst1 Eurofins-Panlabs radioligand binding assay; set-up: ligand concentration 0.1 nM; conditions: Compound concentration 10.0 uM
[32] = target: Galanin receptor type 1 (Homo sapiens) (UniProt P47211); assay: Galanin GAL1 Eurofins-Panlabs radioligand binding assay; conditions: Compound concentration 10.0 uM

D(1B) dopamine receptor (Homo sapiens), sequence (P21918 whole entry): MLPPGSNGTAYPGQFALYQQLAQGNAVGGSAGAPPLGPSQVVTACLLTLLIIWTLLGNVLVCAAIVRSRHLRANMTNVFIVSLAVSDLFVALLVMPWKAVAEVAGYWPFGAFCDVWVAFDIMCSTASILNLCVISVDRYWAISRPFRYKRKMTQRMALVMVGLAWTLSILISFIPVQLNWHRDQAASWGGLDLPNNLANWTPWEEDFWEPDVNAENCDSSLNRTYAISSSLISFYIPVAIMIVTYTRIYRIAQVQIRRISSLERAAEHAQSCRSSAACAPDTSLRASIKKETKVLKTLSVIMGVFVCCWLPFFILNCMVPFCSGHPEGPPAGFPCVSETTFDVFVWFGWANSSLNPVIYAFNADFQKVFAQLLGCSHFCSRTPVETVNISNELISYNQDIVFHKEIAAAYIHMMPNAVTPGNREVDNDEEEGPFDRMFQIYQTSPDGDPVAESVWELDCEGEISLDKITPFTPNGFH
5-hydroxytryptamine receptor 1E (Homo sapiens), sequence (P28566 whole entry): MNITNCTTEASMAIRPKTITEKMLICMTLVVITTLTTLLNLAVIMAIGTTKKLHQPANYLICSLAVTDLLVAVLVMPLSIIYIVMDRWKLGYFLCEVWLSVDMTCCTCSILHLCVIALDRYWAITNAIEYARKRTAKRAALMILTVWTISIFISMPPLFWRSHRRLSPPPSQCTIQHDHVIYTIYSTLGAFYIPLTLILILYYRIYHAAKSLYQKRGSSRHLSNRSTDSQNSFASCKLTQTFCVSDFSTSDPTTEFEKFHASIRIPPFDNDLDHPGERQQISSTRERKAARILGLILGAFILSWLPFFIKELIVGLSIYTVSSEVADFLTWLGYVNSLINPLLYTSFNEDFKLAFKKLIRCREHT
Prostaglandin D2 receptor (Homo sapiens), sequence (Q13258 whole entry): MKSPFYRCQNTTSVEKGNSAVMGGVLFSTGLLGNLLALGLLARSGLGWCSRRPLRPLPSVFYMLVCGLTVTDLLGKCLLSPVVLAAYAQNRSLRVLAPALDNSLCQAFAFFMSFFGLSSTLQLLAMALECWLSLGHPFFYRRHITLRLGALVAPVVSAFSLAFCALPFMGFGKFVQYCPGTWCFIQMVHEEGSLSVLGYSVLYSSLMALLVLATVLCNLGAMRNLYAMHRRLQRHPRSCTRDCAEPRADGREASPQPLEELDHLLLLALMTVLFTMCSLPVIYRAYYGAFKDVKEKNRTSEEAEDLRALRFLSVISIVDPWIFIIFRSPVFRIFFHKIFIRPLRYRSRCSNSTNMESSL
Somatostatin receptor type 1 (Homo sapiens), sequence (P30872 whole entry): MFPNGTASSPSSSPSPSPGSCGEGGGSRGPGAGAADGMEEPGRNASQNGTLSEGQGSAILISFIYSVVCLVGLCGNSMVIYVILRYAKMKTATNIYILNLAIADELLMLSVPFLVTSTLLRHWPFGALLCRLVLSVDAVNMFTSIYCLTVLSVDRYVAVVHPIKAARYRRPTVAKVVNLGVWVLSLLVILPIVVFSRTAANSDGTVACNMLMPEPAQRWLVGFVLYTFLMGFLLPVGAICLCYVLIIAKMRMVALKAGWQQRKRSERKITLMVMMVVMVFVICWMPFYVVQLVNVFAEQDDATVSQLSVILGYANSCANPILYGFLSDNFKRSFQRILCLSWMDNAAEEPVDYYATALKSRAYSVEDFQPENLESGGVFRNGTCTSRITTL
Tyrosine-protein phosphatase non-receptor type 2, sequence (P17706 whole entry): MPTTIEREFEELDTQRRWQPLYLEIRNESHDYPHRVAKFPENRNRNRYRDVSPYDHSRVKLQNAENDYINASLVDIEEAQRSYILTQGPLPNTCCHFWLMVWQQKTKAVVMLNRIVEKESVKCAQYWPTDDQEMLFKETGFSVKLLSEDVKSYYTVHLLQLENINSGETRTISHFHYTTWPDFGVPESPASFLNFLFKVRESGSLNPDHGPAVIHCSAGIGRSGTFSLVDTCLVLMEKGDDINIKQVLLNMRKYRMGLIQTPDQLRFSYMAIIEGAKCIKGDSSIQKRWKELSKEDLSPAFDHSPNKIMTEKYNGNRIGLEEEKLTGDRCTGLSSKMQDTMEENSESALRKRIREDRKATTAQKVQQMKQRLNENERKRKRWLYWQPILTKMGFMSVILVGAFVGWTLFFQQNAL
Bombesin receptor (Rattus norvegicus), sequence (P24053 whole entry, looked up): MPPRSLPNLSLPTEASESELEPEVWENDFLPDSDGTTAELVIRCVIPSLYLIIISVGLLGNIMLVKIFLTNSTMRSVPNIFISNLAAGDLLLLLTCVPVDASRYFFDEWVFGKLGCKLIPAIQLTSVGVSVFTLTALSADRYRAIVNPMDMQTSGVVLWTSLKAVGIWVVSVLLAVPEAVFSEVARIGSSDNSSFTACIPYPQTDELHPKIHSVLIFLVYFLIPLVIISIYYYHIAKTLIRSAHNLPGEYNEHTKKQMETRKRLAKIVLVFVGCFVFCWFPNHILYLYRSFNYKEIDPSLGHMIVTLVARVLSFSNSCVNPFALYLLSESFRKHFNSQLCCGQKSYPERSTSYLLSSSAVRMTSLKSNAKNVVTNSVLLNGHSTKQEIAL
Bombesin receptor (Rattus norvegicus), sequence (P52500 whole entry, looked up): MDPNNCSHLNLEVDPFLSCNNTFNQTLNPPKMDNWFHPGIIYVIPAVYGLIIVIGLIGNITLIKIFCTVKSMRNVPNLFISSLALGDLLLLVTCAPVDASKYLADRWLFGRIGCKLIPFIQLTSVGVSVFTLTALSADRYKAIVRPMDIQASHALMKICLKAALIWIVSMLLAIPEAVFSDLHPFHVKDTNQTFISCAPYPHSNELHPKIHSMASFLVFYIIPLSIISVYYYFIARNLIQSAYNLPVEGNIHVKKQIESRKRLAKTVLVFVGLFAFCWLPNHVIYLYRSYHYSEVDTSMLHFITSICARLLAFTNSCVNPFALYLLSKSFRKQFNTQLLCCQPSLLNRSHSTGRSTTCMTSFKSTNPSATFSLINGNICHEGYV
Bombesin receptor (Rattus norvegicus), sequence (Q8K418 whole entry, looked up): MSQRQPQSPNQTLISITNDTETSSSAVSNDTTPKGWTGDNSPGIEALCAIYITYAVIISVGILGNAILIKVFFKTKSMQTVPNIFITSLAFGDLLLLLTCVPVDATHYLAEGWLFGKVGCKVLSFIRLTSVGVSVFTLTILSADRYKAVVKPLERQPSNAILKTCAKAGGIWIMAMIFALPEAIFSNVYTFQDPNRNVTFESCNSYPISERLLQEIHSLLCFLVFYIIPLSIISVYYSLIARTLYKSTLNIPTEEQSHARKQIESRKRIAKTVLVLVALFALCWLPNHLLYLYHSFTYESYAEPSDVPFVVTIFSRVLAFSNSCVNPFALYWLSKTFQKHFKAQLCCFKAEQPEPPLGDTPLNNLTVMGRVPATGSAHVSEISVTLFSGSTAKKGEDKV
Mu-type opioid receptor (Homo sapiens), sequence (P35372 whole entry): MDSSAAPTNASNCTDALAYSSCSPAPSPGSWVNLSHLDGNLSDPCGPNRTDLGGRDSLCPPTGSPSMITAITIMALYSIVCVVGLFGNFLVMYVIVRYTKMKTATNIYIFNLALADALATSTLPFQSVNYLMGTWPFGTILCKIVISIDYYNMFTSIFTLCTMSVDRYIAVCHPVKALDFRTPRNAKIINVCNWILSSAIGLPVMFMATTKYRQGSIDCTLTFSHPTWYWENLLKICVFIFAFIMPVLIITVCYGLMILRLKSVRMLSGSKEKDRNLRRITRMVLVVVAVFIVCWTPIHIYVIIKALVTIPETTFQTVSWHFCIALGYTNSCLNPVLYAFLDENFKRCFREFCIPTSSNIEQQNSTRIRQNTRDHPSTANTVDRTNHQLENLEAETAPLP
Beta-1 adrenergic receptor (Homo sapiens), sequence (P08588 whole entry, looked up): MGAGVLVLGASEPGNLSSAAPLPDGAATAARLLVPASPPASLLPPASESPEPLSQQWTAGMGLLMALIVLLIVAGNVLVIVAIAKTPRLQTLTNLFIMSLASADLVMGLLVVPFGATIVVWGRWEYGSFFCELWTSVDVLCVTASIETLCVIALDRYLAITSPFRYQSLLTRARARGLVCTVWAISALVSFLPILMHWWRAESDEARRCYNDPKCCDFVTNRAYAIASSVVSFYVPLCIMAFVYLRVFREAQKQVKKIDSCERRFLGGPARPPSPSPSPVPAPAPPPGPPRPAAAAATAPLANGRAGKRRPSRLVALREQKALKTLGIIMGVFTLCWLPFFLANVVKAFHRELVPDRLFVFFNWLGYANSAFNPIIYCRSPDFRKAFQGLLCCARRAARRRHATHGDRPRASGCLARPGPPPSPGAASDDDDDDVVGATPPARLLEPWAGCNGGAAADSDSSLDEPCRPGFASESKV
Caspase-7 (Homo sapiens), sequence (P55210 24-198 limits assumed): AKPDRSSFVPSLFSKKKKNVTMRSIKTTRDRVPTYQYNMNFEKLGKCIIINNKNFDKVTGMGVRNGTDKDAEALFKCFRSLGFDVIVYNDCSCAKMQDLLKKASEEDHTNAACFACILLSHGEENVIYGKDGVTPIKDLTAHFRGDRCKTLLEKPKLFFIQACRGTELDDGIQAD
Caspase-7 (Homo sapiens), sequence (P55210 207-303 limits assumed): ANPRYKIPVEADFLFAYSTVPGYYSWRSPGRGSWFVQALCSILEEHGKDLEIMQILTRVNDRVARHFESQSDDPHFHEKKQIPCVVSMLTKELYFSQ
B1 bradykinin receptor (Homo sapiens), sequence (P46663 whole entry): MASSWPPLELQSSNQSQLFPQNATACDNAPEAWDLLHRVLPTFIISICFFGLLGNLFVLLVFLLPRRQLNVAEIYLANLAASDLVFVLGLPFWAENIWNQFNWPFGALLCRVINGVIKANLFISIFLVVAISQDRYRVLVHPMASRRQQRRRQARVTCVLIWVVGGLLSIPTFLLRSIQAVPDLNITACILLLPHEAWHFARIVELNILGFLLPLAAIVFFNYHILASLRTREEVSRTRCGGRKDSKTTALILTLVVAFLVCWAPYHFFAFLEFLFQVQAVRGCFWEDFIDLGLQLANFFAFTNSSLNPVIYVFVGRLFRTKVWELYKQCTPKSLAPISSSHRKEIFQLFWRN

**Q.** Which inhibition [1] does the source give for `N#CC1(c2ccccn2)CCN(Cc2cc(C(=O)N3CCCC3)c(=O)n3ccccc23)CC1` here?
**A.** The inhibition was -3.26%.

**Q.** And the inhibition [2]?
**A.** The inhibition was -5.66%.

**Q.** How did the inhibition [3] turn out when `N#CC1(c2ccccn2)CCN(Cc2cc(C(=O)O)c(=O)n3ccccc23)CC1` [MSD-M1PAM] was run?
**A.** Its inhibition is 3%.

**Q.** And the inhibition [4]?
**A.** The inhibition was 2%.

**Q.** What about the inhibition [5] of the same molecule?
**A.** The inhibition was -2%.

**Q.** What about the inhibition [6] of the same molecule?
**A.** The inhibition was 29%.

**Q.** And the inhibition [7]?
**A.** Its inhibition is 6%.

**Q.** And the inhibition [8]?
**A.** The inhibition was 5%.

**Q.** And the inhibition [9]?
**A.** The inhibition was 2%.

**Q.** And the inhibition [10]?
**A.** The inhibition was 4%.

**Q.** And the inhibition [11]?
**A.** The inhibition was 0%.

**Q.** What about the inhibition [12] of the same molecule?
**A.** Its inhibition is 10%.

**Q.** And the inhibition [13]?
**A.** Its inhibition is 34%.

**Q.** And the inhibition [14]?
**A.** The inhibition was -7%.

**Q.** What about the inhibition [15] of the same molecule?
**A.** Its inhibition is 2%.

**Q.** And the Ki [16]?
**A.** Its Ki is 10 µM.

**Q.** And the inhibition [17]?
**A.** The inhibition was -6%.

**Q.** What about the IC50 [18] of the same molecule?
**A.** The IC50 was 91.5 µM.

**Q.** What about the inhibition ([18]; Compound concentration 0.1 uM) of the same molecule?
**A.** Its inhibition is -9%.

**Q.** And the inhibition ([18]; Compound concentration 1.0 uM)?
**A.** Its inhibition is -3%.

**Q.** And the inhibition ([18]; Compound concentration 10.0 uM)?
**A.** The inhibition was 11%.

**Q.** And the inhibition ([18]; Compound concentration 100.0 uM)?
**A.** The inhibition was 52%.

**Q.** What about the inhibition [19] of the same molecule?
**A.** The inhibition was 0%.

**Q.** And the inhibition [20]?
**A.** The inhibition was 21%.

**Q.** And the inhibition [21]?
**A.** The inhibition was 9%.

**Q.** And the inhibition [22]?
**A.** The inhibition was -3%.

**Q.** What about the inhibition [23] of the same molecule?
**A.** The inhibition was -6%.

**Q.** What about the inhibition [24] of the same molecule?
**A.** Its inhibition is 11%.

**Q.** What about the inhibition [25] of the same molecule?
**A.** The inhibition was 4%.

**Q.** And the inhibition [26]?
**A.** Its inhibition is -7%.

**Q.** And the IC50 [27]?
**A.** Its IC50 is 10 µM (not active).

**Q.** What about the inhibition [28] of the same molecule?
**A.** Its inhibition is 9%.

**Q.** What about the inhibition [29] of the same molecule?
**A.** Its inhibition is 0%.

**Q.** What about the inhibition [30] of the same molecule?
**A.** The inhibition was 0%.

**Q.** And the inhibition [31]?
**A.** The inhibition was -3%.

**Q.** And the inhibition [32]?
**A.** The inhibition was 2%.
